This is an account of results in patent US20260216138A1, “IDENTIFICATION OF OTUD7B INHIBITOR 7BI AND ITS APPLICATION IN REDUCING GROWTH OF NSCLC AND LEUKEMIA CELLS” (The University of North Carolina at Chapel Hill, priority 2023, published 2026).

Assay [1] has as its target T1, OTUD7B binding to GβL (Homo sapiens, UniProt Q6GQQ9).
T1 sequence (Q6GQQ9 1-843): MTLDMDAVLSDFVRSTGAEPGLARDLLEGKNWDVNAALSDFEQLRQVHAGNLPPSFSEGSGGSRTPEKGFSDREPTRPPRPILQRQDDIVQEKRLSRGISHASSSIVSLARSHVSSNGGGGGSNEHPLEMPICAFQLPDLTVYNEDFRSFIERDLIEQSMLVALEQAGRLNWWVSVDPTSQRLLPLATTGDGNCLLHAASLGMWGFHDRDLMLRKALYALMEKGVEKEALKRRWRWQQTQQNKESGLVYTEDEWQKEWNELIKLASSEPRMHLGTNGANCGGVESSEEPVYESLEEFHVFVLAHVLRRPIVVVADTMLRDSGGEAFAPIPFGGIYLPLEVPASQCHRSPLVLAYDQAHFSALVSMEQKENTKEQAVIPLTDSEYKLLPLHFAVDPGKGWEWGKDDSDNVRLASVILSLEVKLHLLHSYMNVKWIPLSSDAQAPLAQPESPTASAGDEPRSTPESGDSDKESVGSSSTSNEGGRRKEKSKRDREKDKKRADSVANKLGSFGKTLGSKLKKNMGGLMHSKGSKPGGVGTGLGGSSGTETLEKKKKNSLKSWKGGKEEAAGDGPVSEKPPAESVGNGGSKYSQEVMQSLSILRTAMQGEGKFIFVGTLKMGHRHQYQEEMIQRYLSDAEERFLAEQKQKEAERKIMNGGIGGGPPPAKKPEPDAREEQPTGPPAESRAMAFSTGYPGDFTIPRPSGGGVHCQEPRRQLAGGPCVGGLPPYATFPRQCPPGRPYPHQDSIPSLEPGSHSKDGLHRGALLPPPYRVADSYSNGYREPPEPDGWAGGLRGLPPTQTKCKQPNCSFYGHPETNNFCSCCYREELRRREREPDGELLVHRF
The experiment in a line: OTUD7B binding to GβL. Format: cell-based. As for the experimental part:
Cells were harvested and lysed in EBC buffer (50 mM Tris pH 7.5, 120 mM NaCl, 0.5% NP-40) supplemented with protease inhibitor cocktail (EDTA-free, mini-tablet) (Bimake) and phosphatase inhibitor cocktail (Bimake) by rotating in the cold room for 10 min followed by high-speed centrifugation at 4° C. The protein concentrations in supernatants of whole cell lysates were measured by NanoDrop OneC using the Bio-Rad Bradford protein assay reagent. Equal amounts of whole cell lysates were resolved on SDS-PAGE and immunoblotted with indicated antibodies. For immunoprecipitation analysis, 1 mg of total cell lysate was incubated with the indicated beads for 3-4 hr at 4° C. The recovered immuno-complexes were washed thoroughly three times with NETN buffer (20 mM Tris, pH 8.0, 100 mM NaCl, 1 mM EDTA and 0.5% NP-40) before being resuspended in SDS sample buffer and resolved on SDS-PAGE and immunoblotted with indicated antibodies.

Assay [2] relates to A549 cells. Briefly: Colony formation / growth of A549 cells. The format is cell-based. The conditions noted are these: treated once for 10 days. As for the experimental part: 500 cells from OTUD7B depleted A549 cells were seeded into each well of 6-well plates and cultured in the 37° C. incubator with 5% CO2 for 10-15 days until formation of visible colonies. Triplicates were performed. To test the effect of a given inhibitor on colony formation ability, 800 cells from A549, H520 and H1299 cell lines were seeded into each well of 6-well plates, respectively. Each inhibitor was added at indicated concentration the next day. Colonies were counted after 10 days of treatment. The colony staining method was as described. […] Colony numbers were counted manually. […]
2,000 cells from indicated NSLC cell lines were seeded into each well of 96-well plates. Cell viability was measured 3 days post-treatment using MTT assays following manufacturer's instruction. […] Inhibitor was added the next day at indicated concentration and cell viability was measured after 3-day treatment. For cell proliferation assays in THP1, K562 and HL60 cell lines, 1×10^6 cells from each indicated cell line were seeded in 12.5 cm2 cell culture flask and cells were counted by hemocytometer under microscope at indicated time to monitor cell proliferation. […] Inhibitor was added the next day at indicated concentrations and cell number was counted after 3 days treatment. […]

The structures appear in SMILES notation.

On to `Cc1cc(NC(=O)c2cnn(C)c2C(=O)Nc2cc(C)nn2C2CCCC2)n(C2CCCC2)n1` [7Bi], for which the “OTUD7B binding to GβL” value in assay [1] is on record as “nor significantly affected OTUD7B binding to GβL”. Besides, in assay [2], the cell growth entry was “reduced growth”.
